From US20230027026A1, “FUSED PYRIMIDINE COMPOUNDS, COMPOSITIONS AND MEDICINAL APPLICATIONS THEREOF” (JUBILANT BIOSYS LIMITED, priority 2019, published 2023)
Where a name gives a salt, the structure may show the parent alone.

Experiments:
A431 cells = assay: Cellular proliferation (Alamar Blue) assay, A431; type: cell-based; settings: Homo sapiens, A-431; A431 cells, 72 hr, Alamar Blue; read-out: A431 IC50
Procedure: (§1) Example 3: Cellular Proliferation (Alamar Blue) Assays
(§2) • 1. EGFR(D770_N771insSVD) expressing Ba/F3 stable cell line • 2. EGFR (A767_dupASV) expressing Ba/F3 stable cell line • 3. A431 cells • 4. BTER2 (A775_G776insYVMA) expressing Ba/F3 stable cell line • 5. BTER2 (WT) expressing Ba/F3 stable cell line • 6. BT-474 cells
(§3) • 1. Seed cells at 5000 for A431 and 15,000 cells for Ba/F3 in 100 μL/well in complete media (for A431: DMEM with 10% FBS and for Ba/F3 cells: RPMI with 10% FBS) in 96-well tissue culture plate. Leave outer wells without cells for background measurements. Incubate at 37 degree Celsius in 5% CO2 humidified incubator for 16-18 hours. • 2. Add 0.025 ml of 5× concentration compound dilution or DMSO control. Final compound concentration range is 10-0.0005 μM prepared in 3-fold serial dilutions. Incubate for 72 hr at 37 degree Celsius in […] humidified incubator. • 3. Add 0.0125 mL Alamar Blue™ reagent to each well with multi-channel pipette and tap gently on each side of the plate to mix. Incubate for 3 hours at 37 degree Celsius in […] humidified incubator. • 4. Read plates on fluorescence reader (Tecan Spark Control, Device: Spark, Serial #: 1801006040) at 540 nm excitation, 590 nm emission wavelength. • 5. Data analysis was performed using XLfit 5.5.0.5.

[1] = target: EGFR (A767_dupASV) expressing Ba/F3 stable cell line (Homo sapiens, UniProt P00533, DUP767-769, cells depend on it); assay: Cellular proliferation (Alamar Blue) assay, EGFR A767_dupASV Ba/F3; type: cell-based; settings: EGFR A767_dupASV Ba/F3, 72 hr, read-out: A767 IC50
Sequence of EGFR (A767_dupASV) expressing Ba/F3 stable cell line (P00533 with tags, fused parts or gaps DUP767-769): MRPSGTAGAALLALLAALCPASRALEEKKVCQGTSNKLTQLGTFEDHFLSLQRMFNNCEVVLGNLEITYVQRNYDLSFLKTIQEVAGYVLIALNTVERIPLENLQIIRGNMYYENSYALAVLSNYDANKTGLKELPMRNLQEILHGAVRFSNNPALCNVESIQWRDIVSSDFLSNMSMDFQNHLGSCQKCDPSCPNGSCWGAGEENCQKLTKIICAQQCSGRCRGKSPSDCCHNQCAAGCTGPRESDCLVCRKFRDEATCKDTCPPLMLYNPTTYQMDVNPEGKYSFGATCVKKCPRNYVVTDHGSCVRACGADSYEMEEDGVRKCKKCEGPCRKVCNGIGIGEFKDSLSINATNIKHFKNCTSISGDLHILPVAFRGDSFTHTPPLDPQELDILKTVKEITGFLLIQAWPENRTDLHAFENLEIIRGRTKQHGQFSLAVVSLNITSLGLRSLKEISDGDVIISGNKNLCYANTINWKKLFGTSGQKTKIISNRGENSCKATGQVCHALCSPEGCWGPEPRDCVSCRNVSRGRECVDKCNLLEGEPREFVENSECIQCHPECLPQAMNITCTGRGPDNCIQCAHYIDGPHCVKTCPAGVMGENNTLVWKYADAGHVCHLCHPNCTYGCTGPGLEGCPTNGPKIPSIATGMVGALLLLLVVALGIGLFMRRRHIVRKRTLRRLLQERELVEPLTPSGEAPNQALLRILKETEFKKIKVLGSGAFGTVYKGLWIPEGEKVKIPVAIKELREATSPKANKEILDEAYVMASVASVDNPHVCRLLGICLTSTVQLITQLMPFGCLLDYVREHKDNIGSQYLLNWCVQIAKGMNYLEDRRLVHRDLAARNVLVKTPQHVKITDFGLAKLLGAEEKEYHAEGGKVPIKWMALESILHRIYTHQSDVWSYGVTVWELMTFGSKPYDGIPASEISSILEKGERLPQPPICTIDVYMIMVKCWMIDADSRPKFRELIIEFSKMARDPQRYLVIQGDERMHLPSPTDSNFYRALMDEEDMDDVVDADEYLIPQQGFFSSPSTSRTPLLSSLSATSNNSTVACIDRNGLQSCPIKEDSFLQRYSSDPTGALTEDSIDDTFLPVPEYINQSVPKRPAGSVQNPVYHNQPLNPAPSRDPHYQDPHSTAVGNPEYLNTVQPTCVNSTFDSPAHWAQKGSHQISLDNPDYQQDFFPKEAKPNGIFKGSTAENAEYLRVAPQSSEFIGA
Procedure: as §1, §2, §3

[2] = target: EGFR(D770_N771insSVD) expressing Ba/F3 stable cell line (Homo sapiens, UniProt P00533, DUP768-770, cells depend on it); assay: Cellular proliferation (Alamar Blue) assay, EGFR D770_N771insSVD Ba/F3; type: cell-based; settings: EGFR D770_N771insSVD Ba/F3, 72 hr, read-out: D770 IC50
Sequence of EGFR(D770_N771insSVD) expressing Ba/F3 stable cell line (P00533 with tags, fused parts or gaps DUP768-770): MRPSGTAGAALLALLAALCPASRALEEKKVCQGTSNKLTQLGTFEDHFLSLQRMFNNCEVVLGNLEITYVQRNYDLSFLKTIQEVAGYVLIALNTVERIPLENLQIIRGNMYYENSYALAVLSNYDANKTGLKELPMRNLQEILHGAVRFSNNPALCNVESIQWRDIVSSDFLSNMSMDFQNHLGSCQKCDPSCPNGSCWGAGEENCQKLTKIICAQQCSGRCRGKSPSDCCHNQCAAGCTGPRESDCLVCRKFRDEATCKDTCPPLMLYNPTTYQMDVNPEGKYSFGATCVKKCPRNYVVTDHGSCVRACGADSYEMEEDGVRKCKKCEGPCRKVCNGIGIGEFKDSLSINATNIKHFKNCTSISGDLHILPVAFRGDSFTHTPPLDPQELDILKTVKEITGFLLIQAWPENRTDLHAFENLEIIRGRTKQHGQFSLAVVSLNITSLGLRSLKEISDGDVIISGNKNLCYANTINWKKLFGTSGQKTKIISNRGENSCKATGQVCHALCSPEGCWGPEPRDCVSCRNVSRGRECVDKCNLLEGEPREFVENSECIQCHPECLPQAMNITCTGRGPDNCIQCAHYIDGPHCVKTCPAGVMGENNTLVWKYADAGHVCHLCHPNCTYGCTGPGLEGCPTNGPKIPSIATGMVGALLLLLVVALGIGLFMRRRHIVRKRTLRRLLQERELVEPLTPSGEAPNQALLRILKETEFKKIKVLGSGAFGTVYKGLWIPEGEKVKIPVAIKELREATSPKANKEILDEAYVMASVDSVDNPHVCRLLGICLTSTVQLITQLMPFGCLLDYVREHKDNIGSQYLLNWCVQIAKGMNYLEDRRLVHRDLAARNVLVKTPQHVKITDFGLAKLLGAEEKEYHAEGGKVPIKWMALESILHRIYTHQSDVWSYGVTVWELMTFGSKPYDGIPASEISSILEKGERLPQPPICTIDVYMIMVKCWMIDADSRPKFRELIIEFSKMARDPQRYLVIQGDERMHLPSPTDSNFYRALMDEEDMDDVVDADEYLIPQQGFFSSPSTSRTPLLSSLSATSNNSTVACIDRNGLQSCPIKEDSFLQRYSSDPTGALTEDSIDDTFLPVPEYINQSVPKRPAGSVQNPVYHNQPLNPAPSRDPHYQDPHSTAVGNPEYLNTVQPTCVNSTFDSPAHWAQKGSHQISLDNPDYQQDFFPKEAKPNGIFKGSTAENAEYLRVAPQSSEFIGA
Procedure: as §1, §2, §3

[3] = target: HER2 (A775_G776insYVMA) expressing Ba/F3 stable cell line (Homo sapiens, UniProt P04626, DUP772-775, cells depend on it); assay: Cellular proliferation (Alamar Blue) assay, HER2 YVMA Ba/F3; type: cell-based; settings: HER2 A775_G776insYVMA Ba/F3, 72 hr, read-out: YVMA IC50
Sequence of HER2 (A775_G776insYVMA) expressing Ba/F3 stable cell line (P04626 with tags, fused parts or gaps DUP772-775): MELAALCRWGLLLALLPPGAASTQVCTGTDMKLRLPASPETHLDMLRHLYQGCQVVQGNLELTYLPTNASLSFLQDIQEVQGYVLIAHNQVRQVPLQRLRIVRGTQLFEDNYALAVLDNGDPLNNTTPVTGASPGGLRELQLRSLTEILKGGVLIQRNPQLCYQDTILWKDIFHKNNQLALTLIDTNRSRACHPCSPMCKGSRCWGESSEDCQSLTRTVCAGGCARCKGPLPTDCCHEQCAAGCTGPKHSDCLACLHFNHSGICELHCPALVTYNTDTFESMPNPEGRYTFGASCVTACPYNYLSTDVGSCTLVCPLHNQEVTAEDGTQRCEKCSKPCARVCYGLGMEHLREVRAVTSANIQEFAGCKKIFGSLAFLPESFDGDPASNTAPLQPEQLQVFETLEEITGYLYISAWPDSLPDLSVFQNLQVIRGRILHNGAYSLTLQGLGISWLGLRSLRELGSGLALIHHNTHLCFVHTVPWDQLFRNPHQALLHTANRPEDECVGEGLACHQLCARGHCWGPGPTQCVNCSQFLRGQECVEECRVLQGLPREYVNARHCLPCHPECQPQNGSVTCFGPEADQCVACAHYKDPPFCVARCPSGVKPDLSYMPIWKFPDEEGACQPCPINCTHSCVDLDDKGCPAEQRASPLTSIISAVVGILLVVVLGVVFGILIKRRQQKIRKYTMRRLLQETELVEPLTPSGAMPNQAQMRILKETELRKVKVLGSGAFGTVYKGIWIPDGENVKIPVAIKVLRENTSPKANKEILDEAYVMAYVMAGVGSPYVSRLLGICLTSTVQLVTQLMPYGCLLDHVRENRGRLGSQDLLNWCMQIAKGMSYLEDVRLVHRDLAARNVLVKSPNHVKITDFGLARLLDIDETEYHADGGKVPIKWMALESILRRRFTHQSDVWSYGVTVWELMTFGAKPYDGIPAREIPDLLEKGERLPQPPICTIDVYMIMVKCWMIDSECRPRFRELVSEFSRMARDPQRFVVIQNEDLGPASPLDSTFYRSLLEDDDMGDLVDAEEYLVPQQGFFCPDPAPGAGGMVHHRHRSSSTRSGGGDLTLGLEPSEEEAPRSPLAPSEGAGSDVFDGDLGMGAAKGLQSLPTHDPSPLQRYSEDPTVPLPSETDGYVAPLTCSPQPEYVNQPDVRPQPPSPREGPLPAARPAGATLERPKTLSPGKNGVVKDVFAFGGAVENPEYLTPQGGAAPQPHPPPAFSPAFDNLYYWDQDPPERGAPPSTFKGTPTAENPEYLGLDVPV
Procedure: as §1, §2, §3

EGFR (T790M/L858R) = target: T1, EGFR (T790M/L858R) (Homo sapiens, UniProt P00533, L858R/T790M); assay: EGFR L858R/T790M enzyme inhibition assay (HTRF); type: biochemical; settings: 5 μM ATP, 60 min, read-out: EGFR_L858R T790M_IC50_nM
T1 construct: GST; purchased Proqinase
T1 sequence (P00533 25-1210 T790M/L858R): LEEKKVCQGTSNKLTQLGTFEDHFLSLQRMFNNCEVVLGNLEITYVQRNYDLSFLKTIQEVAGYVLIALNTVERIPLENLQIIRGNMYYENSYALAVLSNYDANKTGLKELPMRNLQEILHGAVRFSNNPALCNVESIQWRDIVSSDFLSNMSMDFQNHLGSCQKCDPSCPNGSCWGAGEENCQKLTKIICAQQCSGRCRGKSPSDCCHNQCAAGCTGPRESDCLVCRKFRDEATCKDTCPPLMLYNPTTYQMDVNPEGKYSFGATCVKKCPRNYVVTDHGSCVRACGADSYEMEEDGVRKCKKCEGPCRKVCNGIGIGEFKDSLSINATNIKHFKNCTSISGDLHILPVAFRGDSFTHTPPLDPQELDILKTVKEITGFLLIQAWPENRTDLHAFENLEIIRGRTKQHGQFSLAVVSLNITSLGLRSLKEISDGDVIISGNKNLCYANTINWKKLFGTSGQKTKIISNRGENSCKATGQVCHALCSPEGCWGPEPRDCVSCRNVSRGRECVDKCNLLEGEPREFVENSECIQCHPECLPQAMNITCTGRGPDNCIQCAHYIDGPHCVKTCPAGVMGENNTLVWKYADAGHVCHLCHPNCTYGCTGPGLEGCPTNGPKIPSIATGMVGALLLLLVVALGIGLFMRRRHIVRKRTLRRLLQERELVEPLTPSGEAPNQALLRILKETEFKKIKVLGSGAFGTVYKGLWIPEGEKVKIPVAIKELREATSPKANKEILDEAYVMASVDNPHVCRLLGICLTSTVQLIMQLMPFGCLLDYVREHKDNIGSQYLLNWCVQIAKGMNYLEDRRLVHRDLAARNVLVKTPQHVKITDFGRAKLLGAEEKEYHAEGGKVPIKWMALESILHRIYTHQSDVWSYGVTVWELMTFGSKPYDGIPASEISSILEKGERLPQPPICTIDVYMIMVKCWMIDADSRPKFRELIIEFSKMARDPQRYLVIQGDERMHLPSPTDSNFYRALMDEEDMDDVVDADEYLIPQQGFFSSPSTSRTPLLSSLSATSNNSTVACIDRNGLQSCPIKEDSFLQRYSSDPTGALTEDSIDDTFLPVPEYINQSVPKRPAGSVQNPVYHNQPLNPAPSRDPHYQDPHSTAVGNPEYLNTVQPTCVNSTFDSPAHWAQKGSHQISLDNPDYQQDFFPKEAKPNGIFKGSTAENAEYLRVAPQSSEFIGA
Procedure: Example 2: EGFR L858R & Del19/T790M Assay Protocol (to Find the IC50 for the Compounds Using HTRF Method)
Reagents for Enzyme Assay:
• 1. Enzyme Assay Buffer: 60 mM HEPES (pH 7.4), 50 mM NaCl, 20 mM MgCl2, 5 mM MnCl2, filtered using 0.2 μm pore size, stored at 4° C. • Supplements (added fresh to the enzyme buffer): 1M DTT stock was made, 5% BSA stock and 0.1M Na3OV4 stored at 4° C. Enzyme assay buffer 50 mL, 1 M DTT 100 μL, 5% BSA 500 μL, 0.1 M Na3OV4 50 μL. • 2. GST-hEGFR (L858R), active: EGFR (T790M/L858R), active (Proqinase), 3.6 μM stock; 2.5 nM in final assay. • 3. Gastrin Precusor-Biotinylated: Gastrin precursor (Tyr87) biotinylated peptide, EEAY*GWM, Cell Signaling Tech 1310, Lot-7, Want final 0.5 μM in assay. • 4. ATP: 10 mM stock in 100 μL Enzyme assay buffer pH 7.4 prepared freshly, want 5 μM in final assay. • 5. Test compounds: Powders were dissolved in 100% DMSO and made up to a final stock concentration of 10 mM (volume in μL to add for 10 mM=mg powder X 10^5/MW). Final compound concentration in the assay plate started at 10 μM.
• 1. HTRF buffer: 50 mM Tris —HCl, pH-7.5, 100 mM NaCl, 0.1% BSA, 0.05% Tween20, 0.5 mM EDTA, filtered using 0.2 μm pore size, stored at 4° C. • Phycolink® Streptavidin-Allophycocyanin (SA-APC) Prozyme, Cat. #PJ25S, Lot #896 085, 2.06 mg/mL, APC concentration is 11.6 μM, streptavidin concentration is 15.5 μM. Want 12 nM final in assay (based on streptavidin concentration). • 2. (Europium) Eu-W1024 Anti-phosphotyrosine (PT-66) Antibody: Perkin Elmer (Product Number: AD0068), monoclonal IgG1 that recognizes phosphotyrosine peptide 100 μg/ml stock. Want 0.1 nM final in assay.
• 1. The compound dilution was made by TECAN as per the above scheme. • 2. 16 μL of diluted compound was added to the assay plate by using TECAN. • 3. 10 μL of enzyme mix was added to each well except mins. • 4. 20 μL of substrate and ATP mix were added into each well of the assay plate, manually. • 5. The plate was incubated on a laboratory shaker at room temperature for 60 min. • 6. Meanwhile, the HTRF mix was prepared and 75 μL was added to the HTRF plate. • 7. When the incubation was over, 10 μL of the reaction mixture was transferred to the HTRF assay plate and incubated on a laboratory shaker for 30 min at room temperature. • 8. The reading was taken in Pherastar (ext 337 nm, Em 665 & 620 nm). • 9. The results were analyzed using Graphpad prism after calculation of the z factor, signal window and % inhibition to get the IC50.

| Compound | IC50 (A431 cells) [nM] | GI50 [1] [nM] | GI50 [2] [nM] | GI50 [3] [nM] | IC50 (EGFR (T790M/L858R)) [nM] |
| --- | --- | --- | --- | --- | --- |
| C=CC(=O)Nc1cccc(N2C(=O)N(Cc3ccc(C)cc3C)Cc3cnc(Nc4cn(C)nc4Cl)nc32)c1 [Compound 69, N-(3-(7-((3-chloro-1-methyl-1H-pyrazol-4-yl)amino)-3-(2,4-dimethylbenzyl)-2-oxo-3,4-dihydropyrimido[4,5-d]pyrimidin-1(2H)-yl)phenyl)acrylamide] | ≥ 10000 | 333 | 349 | 682 | – |
| C=CC(=O)Nc1ccc(F)c(N2C(=O)N(Cc3ccccc3)Cc3cnc(Nc4cn(C)nc4Cl)nc32)c1 [Compound 81, N-(3-(3-benzyl-7-((3-chloro-1-methyl-1H-pyrazol-4-yl)amino)-2-oxo-3,4-dihydropyrimido[4,5-d]pyrimidin-1(2H)-yl)-4-fluorophenyl)acrylamide] | ≥ 10000 | 27 | 35 | 13 | – |
| C=CC(=O)Nc1ccc(F)c(N2C(=O)N(c3ccccc3)Cc3cnc(Nc4cn(C)nc4Cl)nc32)c1 [Compound 128, N-(3-(7-((3-chloro-1-methyl-1H-pyrazol-4-yl)amino)-2-oxo-3-phenyl-3,4-dihydropyrimido[4,5-d]pyrimidin-1(2H)-yl)-4-fluorophenyl)acrylamide trifluoroacetate salt] | ≥ 10000 | 11 | 12 | 24 | – |
| C=CC(=O)N1CC[C@H](N2C(=O)N(c3ccccc3)Cc3cnc(Nc4cn(C)nc4Cl)nc32)C1 [Compound 41, (S)-1-(1-acryloylpyrrolidin-3-yl)-7-((3-chloro-1-methyl-1H-pyrazol-4-yl)amino)-3-phenyl-3,4-dihydropyrimido[4,5-d]pyrimidin-2(1H)-one] | ≥ 10000 | 504 | 759 | – | 580 |
| C=CC(=O)NC1CCCC(N2C(=O)N(c3ccc(F)cc3)Cc3cnc(Nc4cn(C)nc4Cl)nc32)C1 (stereo not drawn) [Compound 36, N-(3-(7-((3-chloro-1-methyl-1H-pyrazol-4-yl)amino)-3-(4-fluorophenyl)-2-oxo-3,4-dihydropyrimido[4,5-d]pyrimidin-1(2H)-yl)cyclohexyl)acrylamide] | ≥ 10000 | 3920 | ≥ 10000 | – | 2.97 |
| C=CC(=O)N1CC[C@@H](N2C(=O)N(Cc3ccccc3)Cc3cnc(Nc4cn(C)nc4Cl)nc32)C1 (single isomer, unassigned) [Compound 38] | 7490 | ≥ 10000 | ≥ 10000 | – | 446 |
| CN(C)C/C=C/C(=O)N1CCC(N2C(=O)N(Cc3ccccc3)Cc3cnc(Nc4cn(C)nc4Cl)nc32)C1 (stereo not drawn) [Compound 34, (E)-3-benzyl-7-((3-chloro-1-methyl-1H-pyrazol-4-yl)amino)-1-(1-(4-(dimethylamino)but-2-enoyl)pyrrolidin-3-yl)-3,4-dihydropyrimido[4,5-d]pyrimidin-2(1H)-one] | – | – | – | – | 6570 |
| CN(C)C/C=C/C(=O)NC1CCCC(N2C(=O)N(Cc3ccccc3)Cc3cnc(Nc4cn(C)nc4Cl)nc32)C1 (stereo not drawn) [Compound 33, (E)-N-(3-(3-benzyl-7-((3-chloro-1-methyl-1H-pyrazol-4-yl)amino)-2-oxo-3,4-dihydropyrimido[4,5-d]pyrimidin-1(2H)-yl)cyclohexyl)-4-(dimethylamino)but-2-enamide] | ≥ 10000 | 4080 | 3880 | – | 869 |
| CN(C)C/C=C/C(=O)N1CC[C@H](N2C(=O)N(c3ccccc3)Cc3cnc(Nc4cn(C)nc4Cl)nc32)C1 [Compound 42, (S,E)-7-((3-chloro-1-methyl-1H-pyrazol-4-yl)amino)-1-(1-(4-(dimethylamino)but-2-enoyl)pyrrolidin-3-yl)-3-phenyl-3,4-dihydropyrimido[4,5-d]pyrimidin-2(1H)-one] | ≥ 10000 | ≥ 10000 | ≥ 10000 | – | ≥ 10000 |
